Earlier results in US20080241076A1, “Method and composition for increasing Erythropoietin” (priority 2007, published 2008).

Legend:
[1] = system: erythrocyte 2,3-bisphosphoglycerate (2,3-BPG); conditions: following phosphate loading
kidney production of EPO = conditions: dog kidneys; substances given separately
[2] = human, in vivo
responsiveness to EPO = conditions: in vivo
hemoglobin levels = conditions: hemodialysis patients
renal EPO production = conditions: animal studies
[3] = in-vitro, 14C-labeled
erythrocyte = conditions: Carnitine supplementation
blood flow = conditions: animal study
blood clots = conditions: human trials, feeding
induced clots = conditions: dogs with induced clots

In the case of phosphate, the “erythrocyte 2,3-BPG” value [1] is given as “significant increase”.

In the case of CCCCC[C@H](O)/C=C/[C@H]1[C@H](O)CC(=O)[C@@H]1C/C=C\CCCC(=O)O [PGE2, reference compound], the “iron incorporation in RBC” value (RBC) is given as “significant increase” and the “kidney production of EPO” value (kidney production of EPO) is given as “increased”.

In the case of [Se] [selenium], the “elemental concentration in whole blood and plasma” value [2] is given as “significant increase”.

For Vitamin E, the endogenous glutathione (endogenous glutathione) is given as “stabilize”.

In the case of O=C1O[C@H]([C@@H](O)CO)C(O)=C1O [Vitamin C], the “responsiveness to EPO” value (responsiveness to EPO) is given as “improve” and the hemoglobin levels (hemoglobin levels) is given as “significant increases”.

In the case of Vitamin A, the “renal EPO production” value (renal EPO production) is listed as “increase”.

In the case of CCCCC/C=C\C/C=C\C/C=C\C/C=C\CCCC(=O)O [Arachidonic Acid, all-cis-5,8,11,14-eicossatetraenoic acid], the “prostaglandins produced from Arachidonic acid” value [3] is given as “PGD2, PGE2, PGF2 alpha and 6-keto-PGF1 alpha” and the “kidney production of EPO” value (kidney production of EPO) is given as “increased”.

For C[N+](C)(C)CC(O)CC(=O)[O-] (stereo not drawn) [Carnitine], the erythrocyte survival time (erythrocyte) is given as “increase”.

B1: Nattokinase: potent fibrinolytic enzyme extracted from a Japanese food called Natto (protein, UniProt P35835 107-381, looked up)
Subtilisin NAT: AQSVPYGISQIKAPALHSQGYTGSNVKVAVIDSGIDSSHPDLNVRGGASFVPSETNPYQDGSSHGTHVAGTIAALNNSIGVLGVAPSASLYAVKVLDSTGSGQYSWIINGIEWAISNNMDVINMSLGGPTGSTALKTVVDKAVSSGIVVAAAAGNEGSSGSTSTVGYPAKYPSTIAVGAVNSSNQRASFSSVGSELDVMAPGVSIQSTLPGGTYGAYNGTSMATPHVAGAAALILSKHPTWTNAQVRDRLESTATYLGNSFYYGKGLINVQAAAQ
In the case of B1, the “regain in blood flow” value (blood flow) is listed as 62%, the “ability to dissolve blood clots” value (blood clots) is listed as “heightened ability to dissolve blood clots” and the “time to regain normal blood circulation” value (induced clots) is listed as “within five hours”.

B2: plasmin: the body's natural fibrinolytic enzyme (protein, UniProt P00747 20-580; P00747 581-810, looked up)
Plasmin heavy chain A: EPLDDYVNTQGASLFSVTKKQLGAGSIEECAAKCEEDEEFTCRAFQYHSKEQQCVIMAENRKSSIIIRMRDVVLFEKKVYLSECKTGNGKNYRGTMSKTKNGITCQKWSSTSPHRPRFSPATHPSEGLEENYCRNPDNDPQGPWCYTTDPEKRYDYCDILECEEECMHCSGENYDGKISKTMSGLECQAWDSQSPHAHGYIPSKFPNKNLKKNYCRNPDRELRPWCFTTDPNKRWELCDIPRCTTPPPSSGPTYQCLKGTGENYRGNVAVTVSGHTCQHWSAQTPHTHNRTPENFPCKNLDENYCRNPDGKRAPWCHTTNSQVRWEYCKIPSCDSSPVSTEQLAPTAPPELTPVVQDCYHGDGQSYRGTSSTTTTGKKCQSWSSMTPHRHQKTPENYPNAGLTMNYCRNPDADKGPWCFTTDPSVRWEYCNLKKCSGTEASVVAPPPVVLLPDVETPSEEDCMFGNGKGYRGKRATTVTGTPCQDWAAQEPHRHSIFTPETNPRAGLEKNYCRNPDGDVGGPWCYTTNPRKLYDYCDVPQCAAPSFDCGKPQVEPKKCPGR
Plasmin light chain B: VVGGCVAHPHSWPWQVSLRTRFGMHFCGGTLISPEWVLTAAHCLEKSPRPSSYKVILGAHQEVNLEPHVQEIEVSRLFLEPTRKDIALLKLSSPAVITDKVIPACLPSPNYVVADRTECFITGWGETQGTFGAGLLKEAQLPVIENKVCNRYEFLNGRVQSTELCAGHLAGGTDSCQGDSGGPLVCFEKDKYILQGVTSWGLGCARPNKPGVYVRVSRFVTWIEGVMRNN
modifications: plasmin
notes: the body's natural fibrinolytic enzyme
For B2, the “regain in blood flow” value (blood flow) is listed as 15.8%.
